In US20230416262A1, “TRPML MODULATORS” (Casma Therapeutics, Inc., priority 2020, published 2023):

How the values were obtained:
TFEB = TFEB nuclear translocation assay; type: cell-based; details: Homo sapiens; HeLa wt or HeLa TRPML1 KO cells, treated for 2 hrs; ratio of nuclear to ring-region TFEB intensity
In short: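 HeLa wild-type or TRPML1 KO cells treated 2 h with compound at 37 °C, PFA-fixed, immunostained for TFEB (Alexa 488) with Hoechst nuclei. Imaged at ×20, four fields/well. Value is ratio of nuclear to perinuclear-ring TFEB intensity, with nuclei counts.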

THP-1 cells = experiment: Lamp1 lysosomal exocytosis assay; type: cell-based; details: Homo sapiens, 55 min, 55 min incubation, top dose 20 μM
In short: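 THP-1 cells (1e5/well) exposed to a 7-point 3-fold compound series, top final 20 μM, for 55 min at 37°C. Surface Lamp1 then stained with Lamp1-PE on ice in buffer containing 80 μM Dynasore, and read by flow cytometry as PE geometric mean on live, sytox-negative singlets.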

SMILES: Cc1cc2n(n1)C1(CCCCC1)CN2S(=O)(=O)c1ccc(C(F)F)cc1 [Compound I-148, 1′-[4-(difluoromethyl)benzenesulfonyl]-6′-methyl-1′,2′-dihydrospiro[cyclohexane-1,3′-pyrazolo[1,5-a]imidazole]]
- EC50 (TFEB): ≥ 10 µM
- EC50 (THP-1 cells): ≥ 5.01 µM

SMILES: Cc1ccc2c(c1)N(S(=O)(=O)c1ccc(S(=N)(=O)N(C)C)cc1)CC21CCCCC1 (centres unmarked) [Compound I-149, N,N-dimethyl-4-({6′-methyl-1′,2′-dihydrospiro[cyclohexane-1,3′-indol]-1′-yl}sulfonyl)benzene-1-sulfonoimidamide]
- EC50 (TFEB): ≤ 2 µM
- EC50 (THP-1 cells): ≤ 0.5 µM

SMILES: Cc1nn2c(c1C)N(S(=O)(=O)c1ccc(S(=O)(=O)N(C)C)cc1)CC21CCCCC1 [Compound I-154, 4-({6′,7′-dimethyl-1′,2′-dihydrospiro[cyclohexane-1,3′-pyrazolo[1,5-a]imidazol]-1′-yl}sulfonyl)-N,N-dimethylbenzene-1-sulfonamide]
- EC50 (TFEB): ≥ 10 µM
- EC50 (THP-1 cells): ≥ 5.01 µM

SMILES: Cc1cnc2c(c1)N(S(=O)(=O)c1ccc(S(=N)(=O)N(C)C)cc1)CC21CCCCC1 (centres unmarked) [Compound I-157, N,N-dimethyl-4-({6′-methyl-1′,2′-dihydrospiro[cyclohexane-1,3′-pyrrolo[3,2-b]pyridin]-1′-yl}sulfonyl)benzene-1-sulfonoimidamide]
- EC50 (TFEB): ≤ 2 µM
- EC50 (THP-1 cells): ≥ 5.01 µM

SMILES: O=C(OCc1cccnc1)N1CCC2(CC1)CN(S(=O)(=O)c1ccc(C(F)F)cc1)c1ccccc12 [Compound I-158, (pyridin-3-yl)methyl 1-[4-(difluoromethyl)benzenesulfonyl]-1,2-dihydrospiro[indole-3,4′-piperidine]-1′-carboxylate]
- EC50 (TFEB): ≤ 2 µM
- EC50 (THP-1 cells): 0.51 to 1 µM

SMILES: CC(C)OC(=O)N1CCC2(CC1)CN(S(=O)(=O)c1ccc(C(F)F)cc1)c1ccccc12 [Compound I-160, propan-2-yl 1-[4-(difluoromethyl)benzenesulfonyl]-1,2-dihydrospiro[indole-3,4′-piperidine]-1′-carboxylate]
- EC50 (TFEB): ≤ 2 µM
- EC50 (THP-1 cells): ≤ 0.5 µM

SMILES: O=C(c1ccccc1)N1CCC2(CC1)CN(S(=O)(=O)c1ccc(C(F)F)cc1)c1ccccc12 [Compound I-161, 1′-benzoyl-1-[4-(difluoromethyl)benzenesulfonyl]-1,2-dihydrospiro[indole-3,4′-piperidine]]
- EC50 (TFEB): 2.01 to 8 µM
- EC50 (THP-1 cells): 1.01 to 5 µM

SMILES: O=C(C1CC1)N1CCC2(CC1)CN(S(=O)(=O)c1ccc(C(F)F)cc1)c1ccccc12 [Compound I-162, 1′-cyclopropanecarbonyl-1-[4-(difluoromethyl)benzenesulfonyl]-1,2-dihydrospiro[indole-3,4′-piperidine]]
- EC50 (TFEB): ≥ 10 µM
- EC50 (THP-1 cells): ≥ 5.01 µM

SMILES: O=S(=O)(c1ccc(C(F)F)cc1)N1CC2(CCN(Cc3cnccn3)CC2)c2ccccc21 [Compound I-163, 1-[4-(difluoromethyl)benzenesulfonyl]-1′-[(pyrazin-2-yl)methyl]-1,2-dihydrospiro[indole-3,4′-piperidine]]
- EC50 (TFEB): ≤ 2 µM
- EC50 (THP-1 cells): ≥ 5.01 µM

SMILES: O=S(=O)(c1ccc(C(F)F)cc1)N1CC2(CCN(Cc3ccccn3)CC2)c2ccccc21 [Compound I-164]
- EC50 (TFEB): ≤ 2 µM
- EC50 (THP-1 cells): ≥ 5.01 µM

SMILES: O=S(=O)(c1ccc(C(F)F)cc1)N1CC2(CCN(Cc3cccnc3)CC2)c2ccccc21 [Compound I-165, 1-[4-(difluoromethyl)benzenesulfonyl]-1′-[(pyridin-3-yl)methyl]-1,2-dihydrospiro[indole-3,4′-piperidine]]
- EC50 (TFEB): 2.01 to 8 µM
- EC50 (THP-1 cells): ≥ 5.01 µM

SMILES: O=S(=O)(c1ccc(C(F)F)cc1)N1CC2(CCN(Cc3ccncc3)CC2)c2ccccc21 [Compound I-166, 1-[4-(difluoromethyl)benzenesulfonyl]-1′-[(pyridin-4-yl)methyl]-1,2-dihydrospiro[indole-3,4′-piperidine]]
- EC50 (TFEB): ≤ 2 µM
- EC50 (THP-1 cells): ≥ 5.01 µM

SMILES: O=S(=O)(c1ccc(C(F)F)cc1)N1CC2(CCN(Cc3ncccn3)CC2)c2ccccc21 [Compound I-167, 1-[4-(difluoromethyl)benzenesulfonyl]-1′-[(pyrimidin-2-yl)methyl]-1,2-dihydrospiro[indole-3,4′-piperidine]]
- EC50 (TFEB): 8.01 to 9.99 µM
- EC50 (THP-1 cells): ≥ 5.01 µM
